Laboratory results published in the Kinase Knowledgebase extract (Sharma et al. 2016).

biological target: MAPK14 (human) (UniProt Q16539); assay: Inhibition of MAPK14 Kinase Activity
Sequence (Q16539 whole entry, looked up): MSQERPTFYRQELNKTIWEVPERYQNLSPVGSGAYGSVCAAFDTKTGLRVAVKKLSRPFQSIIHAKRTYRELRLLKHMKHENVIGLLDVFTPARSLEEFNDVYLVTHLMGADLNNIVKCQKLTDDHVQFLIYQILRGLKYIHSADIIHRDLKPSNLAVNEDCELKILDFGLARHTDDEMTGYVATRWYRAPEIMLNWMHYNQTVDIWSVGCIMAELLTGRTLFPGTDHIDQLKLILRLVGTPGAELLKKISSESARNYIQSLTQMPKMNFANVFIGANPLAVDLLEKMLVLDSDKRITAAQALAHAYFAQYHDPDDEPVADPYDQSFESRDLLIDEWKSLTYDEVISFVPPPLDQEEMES

SMILES | IC50 [nM]
O=C(N[C@H]1CCC[C@@H]1O)c1sc2c(ccc(=O)n2-c2ccccc2)c1Nc1ccc(F)cc1F | < 1000
O=C(NC1CCNC1)c1sc2c(ccc(=O)n2-c2ccccc2)c1Nc1ccc(F)cc1F (stereo unspecified) | < 1000
O=C(N[C@H]1CCNC1)c1sc2c(ccc(=O)n2-c2ccccc2)c1Nc1ccc(F)cc1F | < 1000
CN1CC[C@@H](NC(=O)c2sc3c(ccc(=O)n3-c3ccccc3)c2Nc2ccc(F)cc2F)C1 | < 1000
CN1CCC(NC(=O)c2sc3c(ccc(=O)n3-c3ccccc3)c2Nc2ccc(F)cc2F)CC1 | < 1000
CN1CC[C@H](NC(=O)c2sc3c(ccc(=O)n3-c3ccccc3)c2Nc2ccc(F)cc2F)C1 | < 1000
O=C(N[C@@H]1CCC[C@H]1O)c1sc2c(ccc(=O)n2-c2ccccc2)c1Nc1ccc(F)cc1F | < 1000
O=C(N[C@@H]1CCC[C@@H]1O)c1sc2c(ccc(=O)n2-c2ccccc2)c1Nc1ccc(F)cc1F | < 1000

The next lines start with the values.

IC50 [nM] | SMILES
< 1000 | Cc1cc(Nc2c(C(=O)NC3CNC3)sc3c2ccc(=O)n3-c2ccccc2)ccc1F
< 1000 | O=C(c1sc2c(ccc(=O)n2-c2ccccc2)c1Nc1ccc(F)cc1F)C1CCNCC1
< 1000 | O=C(c1sc2c(ccc(=O)n2-c2ccccc2)c1Nc1ccccc1)C1CCNCC1
< 1000 | O=C(NC1CCNCC1)c1sc2c(ccc(=O)n2-c2ccccc2)c1Nc1ccc(F)cc1F
< 1000 | Cc1cc(Nc2c(C(=O)C3CCNCC3)sc3c2ccc(=O)n3-c2ccccc2)ccc1F
< 1000 | Cc1cc(Nc2c(C(=O)C3CCN(C)CC3)sc3c2ccc(=O)n3-c2ccccc2)ccc1F
< 1000 | O=C(N[C@@H]1CCNC1)c1sc2c(ccc(=O)n2-c2ccccc2)c1Nc1ccc(F)cc1F
< 1000 | Cc1cccc(Nc2c(C(=O)C3CCNCC3)sc3c2ccc(=O)n3-c2ccccc2)n1
